Measurements taken from patent publication US9174979B2, “Phenanthroindolizidine compound and NFκB inhibitor containing same as active ingredient” (KABUSHIKI KAISHA YAKULT HONSHA, priority 2008, dated 2015).
Marks after values point to notes of the source that are not given here.

Tests used:
[1] = test system: human non-small cell lung cancer A549 cells; experiment: Inhibitory action on the proliferation of A549 cells; assay type: cell-based; conditions: 96 hours culture, TetraColor ONE; for IC50: Homo sapiens, A549
Description: (§1) The action of the phenanthroindolizidine alkaloid compound of the present invention on the proliferation of human colon cancer SW480 cells, HT-29 cells, and human non-small cell lung cancer A549 cells was studied. The SW480 cells were suspended in a 10% FBS/RPMI1640 and then seeded in a 96-well microplate, followed by culturing in 5% CO2 at 37° C. (2000 cells/well). The A549 cells and the HT-29 cells were each suspended in a DMEM medium containing 10% FBS, 100 U/mL penicillin, and 100 μg/mL streptomycin (10% FBS/DMEM) and a DMEM F-12 HAM medium containing 10% FBS, 100 U/mL penicillin, and 100 μg/mL streptomycin (10% FBS/DMEM F12 HAM), and then seeded in 96-well microplates, followed by culturing in 5% CO2 at 37° C. (1000 cells/well). After an overnight culture, the compound of the present invention was added, followed by further culturing for 48 hours (SW480 cells) and 96 hours (A549 cells and HT-29 cells). After culturing, the number of viable cells was counted using TetraColor ONE (Seikagaku Corporation) in accordance with the attached operating procedure. The results were expressed as the concentration of a test compound needed for 50% inhibition of the proliferation of the cells (IC50).

[2] = Measurement of solubility; conditions: saline or isotonic
Excerpt: In in vivo studies, the phenanthroindolizidine alkaloid compounds were used in the form of a salt.

[3] = test system: human colon cancer HT-29 cells; experiment: Inhibitory action on the proliferation of HT-29 cells; assay type: cell-based; conditions: 96 hours culture, TetraColor ONE; for IC50: Homo sapiens, HT-29
Description: as §1

mice = experiment: Animal toxicity test in mice transplanted with Meth A cells; assay type: in vivo, mouse; conditions: intravenous on days 1, 5, 9, observed for three weeks
Description: Also, the toxicity of known phenanthroindolizidine alkaloid compounds in mice, namely (12aS,13S)-6,7-dimethoxy-9,10,11,12,12a,13-hexahydro-9a-aza-cyclopenta[b]triphenylene-3,13-diol (known compound 1; refer to WO01/023384) and (12aS,13S)-3,6,7-trimethoxy-9,10,11,12,12a,13-hexahydro-9a-aza-cyclopenta[b]triphenylene-13-ol (known compound 2; refer to Planta Med., 2002, 68: 186-188), was simultaneously studied. To a control group, a physiological saline solution as a solvent, was administered.

NFκB = NFκB luciferase reporter assay in SW480/NRE-Luc cells stimulated with TNFα; assay type: cell-based, human; conditions: for IC50: Homo sapiens, SW480, read-out: NFκB inhibitory activity IC50; for NFκB inhibitory activity IC50: SW480/NRE-Luc cells, 50 ng/mL TNFα, luciferase expression
Excerpt: (§2) The action of the phenanthroindolizidine alkaloid compound of the present invention on the NFκB activity was studied in a luciferase assay. Human colon cancer SW480 cells were transfected with pNFκB-Luc Plasmid (Stratagene), which is a reporter vector in which a five-time tandem repeat of the NFκB responsive element (NRE) is integrated into the upstream of the luciferase gene, using Lipofectamine 2000 (Invitrogen Corporation) in accordance with the attached operating procedure. Subsequently, the cells were cultured in an RPMI1640 medium containing 10% FBS, 100 U/mL penicillin, 100 μg/mL streptomycin, and 0.5 mg/mL G418 to produce SW480 cells having the luciferase gene, the expression of which is regulated by NRE, stably introduced therein (SW480/NRE-Luc cells). Likewise, SW480 cells were transfected with pGL3-Control Vector (Promega Corporation), which is a reporter vector in which the SV40 promoter is integrated into the upstream of the luciferase gene, to produce SW480 cells having the luciferase gene, the expression of which is regulated by the SV40 promoter, stably introduced therein (SW480/SV40-Luc cells). The SW480/NRE-Luc cells or the SW480/SV40-Luc cells were suspended in an RPMI1640 medium containing 10% FBS, 100 U/mL penicillin, and 100 μg/mL streptomycin (10% FBS/RPMI1640), and then seeded in a 96-well microplate, followed by culturing under conditions of 5% CO2 and at 37° C. (5000 cells/well). After an overnight culture, the compound of the present invention was added, followed by culturing for one hour. Further, 50 ng/mL TNFα (Sigma-Aldrich Corporation) was added, followed by culturing for four hours. Subsequently, a Steady-Glo Luciferase Assay reagent (Promega Corporation) was added, and the luminescent intensity was detected by SpectraMax M5e (Molecular Devices, Inc.) to measure the intracellular luciferase activity. It is to be noted that the action of the compound of the present invention on the NFκB activity or the SV40 promoter activity was shown as IC50 values (the concentration of a test compound needed for 50% inhibition of the induction of the luciferase expression).

[4] = test system: mice with TPA-induced ear edema; experiment: Anti-inflammatory effect in mice with TPA-induced ear edema; assay type: in vivo, mouse; conditions: intraperitoneal, 30 minutes before TPA 5 μg/ear; ICR mice; four hours after TPA
Description: The anti-inflammatory effect of the phenanthroindolizidine alkaloid compound of the present invention in vivo was studied using mice with phorbol 12-myristate 13-acetate (TPA)-induced ear edema. Compound 11, a compound of the present invention, was intraperitoneally administered to male 6-week-old ICR mice, and after 30 minutes, TPA (Sigma-Aldrich Corporation) dissolved in acetone was applied to the front and back of the right ear of the mice (5 μg/ear). Four hours after application of TPA, the thickness of the auricle was measured by a dial thickness gauge (Ozaki Mfg Co. Ltd.). A control group was administered with a 5% glucose solution as a solvent.

[5] = test system: mouse fibrosarcoma Meth A cells; experiment: Antitumor effect in mice transplanted with mouse fibrosarcoma Meth A cells; assay type: in vivo; conditions: intravenous on days 1, 5, 9, BALB/c mice, tumor weight on day 21
Description: The antitumor effect of the phenanthroindolizidine alkaloid compound of the present invention in vivo was studied using mice transplanted with mouse fibrosarcoma Meth A cells. Meth A cells were transplanted subcutaneously in the inguinal region of male 7-week-old BALB/c mice (2.5×10^5 cells/mouse). Subsequently, on days 1, 5, and 9, the compound of the present invention was intravenously administered. To a control group, physiological saline as a solvent, was administered. On day 21 after the cell transplantation, tumor was excised and measured for its weight, and subsequently a tumor growth-inhibition rate IR (%) was obtained by the following formula. Tumor growth-inhibition rate IR(%)=(1−the weight of the tumor in an administration group/the weight of the tumor in a control group)×100

[6] = test system: human colon cancer SW480 cells; experiment: Inhibitory action on the proliferation of SW480 cells; assay type: cell-based; conditions: 48 hours culture, TetraColor ONE; for IC50: Homo sapiens, SW480
Description: as §1

SV40 promoter = SV40 promoter luciferase reporter assay in SW480/SV40-Luc cells; assay type: cell-based, human; conditions: for IC50: Homo sapiens, SW480, read-out: SV40 promoter inhibitory activity IC50; for SV40 promoter inhibitory activity IC50: SW480/SV40-Luc cells, luciferase expression
Excerpt: as §2

[7] = test system: human colon cancer HCT116 cells; experiment: Antitumor effect in mice transplanted with human colon cancer HCT116 cells; assay type: in vivo; conditions: intraperitoneal on days 1 to 5 and 8 to 12, BALB/c nude mice, tumor weight on day 21
Excerpt: The antitumor effect of the phenanthroindolizidine alkaloid compound of the present invention in vivo was studied using mice transplanted with human colon cancer HCT116 cells. HCT116 cells were transplanted subcutaneously in the inguinal region of male 6-week-old BALB/c nude mice (2×10^6 cells/mouse). On days 1 to 5 and on days 8 to 12 after the time at which the estimated tumor volume obtained by 1/2ab^2 (a and b indicate the major axis and the minor axis of tumor, respectively) reached approximately 100 mm^3 (day 0), the compound of the present invention was administered (intraperitoneal administration). To a control group, a 5% glucose solution as a solvent, was administered. On day 21, tumor was excised and measured for its weight, and subsequently a tumor proliferation-inhibition rate IR (%) was calculated.

With `COc1cc2c3c(c4ccc(O)cc4c2cc1OC)C[C@@H]1CCCN1C3.Cl` [Compound 11, (S)-6,7-dimethoxy-9,10,11,12,12a,13-hexahydro-9a-aza-cyclopenta[b]triphenylene-3-ol hydrochloride] the IC50 [1] was 0.024 ng/mL, the solubility [2] was 4 mg/mL and the IC50 [3] was 0.62 ng/mL. For the same compound, the Mortality rate (mice; total dose 25 mg/kg) was 0/5, the Mortality rate (mice; total dose 50 mg/kg) was 0/5 and the IC50 (NFκB) was 1.2 ng/mL. For the same compound, the “Anti-inflammatory effect (thickness of the auricle)” value [4] was “inhibiting TPA-induced ear edema in a dose-dependent manner”, the “Tumor growth inhibition rate IR” value ([5]; total dose 25 mg/kg) was 52.1** % and the “Tumor growth inhibition rate IR” value ([5]; total dose 50 mg/kg) was 64.6** %. It also gave an IC50 [6] of 3.8 ng/mL and an IC50 (SV40 promoter) of over 10 ng/mL.

With `CC1(C)Oc2cc3c4c(c5ccc(O)cc5c3cc2O1)[C@H](O)[C@@H]1CCCN1C4.Cl` [Compound 9, (12aS,13S)-6,7-isopropylidenedioxy-9,10,11,12,12a,13-hexahydro-9a-aza-cyclopenta[b]triphenylene-3,13-diol hydrochloride] the “A549 proliferation inhibitory action IC50” value [1] was 350.2 ng/mL, the “HT-29 proliferation inhibitory action IC50” value [3] was 184.0 ng/mL and the Mortality rate (mice; total dose 25 mg/kg) was 0/5. The Mortality rate (mice; total dose 50 mg/kg) was 0/5, the “NFκB inhibitory activity IC50” value (NFκB) was 521.6 ng/mL and the “SW480 proliferation inhibitory action IC50” value [6] was 1955.0 ng/mL. The “SV40 promoter inhibitory activity IC50” value (SV40 promoter) was over 10000 ng/mL.

With `COc1cc2c3c(c4ccc(O)cc4c2cc1OC)C[C@H]1CCCN1C3.Cl` [Compound 12, (R)-6,7-dimethoxy-9,10,11,12,12a,13-hexahydro-9a-aza-cyclopenta[b]triphenylene-3-ol hydrochloride] the IC50 [1] was 12.7 ng/mL, the IC50 [3] was 50.4 ng/mL and the Mortality rate (mice; total dose 25 mg/kg) was 0/5. For the same compound, the Mortality rate (mice; total dose 50 mg/kg) was 0/5, the IC50 (NFκB) was 18.1 ng/mL and the “Tumor growth inhibition rate IR” value ([5]; total dose 25 mg/kg) was 25.3%. For the same compound, the “Tumor growth inhibition rate IR” value ([5]; total dose 50 mg/kg) was 58.8** %, the IC50 [6] was 50.4 ng/mL and the IC50 (SV40 promoter) was over 10000 ng/mL.

With `Cl.Oc1ccc2c3c(c4cc5c(cc4c2c1)OCO5)CN1CCC[C@H]1C3` [Compound 13, (S)-6,7-methylenedioxy-9,10,11,12,12a,13-hexahydro-9a-aza-cyclopenta[b]triphenylene-3-ol hydrochloride] the IC50 [1] was 48.2 ng/mL, the IC50 [3] was 260 ng/mL and the Mortality rate (mice; total dose 25 mg/kg) was 0/5. The Mortality rate (mice; total dose 50 mg/kg) was 0/5, the IC50 (NFκB) was 48.4 ng/mL and the “Tumor growth inhibition rate IR” value ([5]; total dose 25 mg/kg) was 45.6* %. The “Tumor growth inhibition rate IR” value ([5]; total dose 50 mg/kg) was 31.5%, the IC50 [6] was 38.7 ng/mL and the IC50 (SV40 promoter) was over 10000 ng/mL.

For “(S)-6,7-dimethoxy-9,10,11,12,12a,13-hexahydro-9a-aza-cyclopenta[b]triphenylene-3-ol methanesulfonate [Compound 16]”, the “Tumor growth inhibition rate IR” value ([7]; total dose 100 mg/kg) was 35.7*** % and the “Tumor growth inhibition rate IR” value ([7]; total dose 200 mg/kg) was 48.7*** %.

For `COc1cc2c3c(c4ccc(O)cc4c2cc1OC)C(O)C1(C)CCCN1C3.Cl` (centres unmarked) [Compound 6, 6,7-dimethoxy-12a-methyl-9,10,11,12,12a,13-hexahydro-9a-aza-cyclopenta[b]triphenylene-3,13-diol hydrochloride], the IC50 [1] was 757 ng/mL, the IC50 [3] was 839 ng/mL and the Mortality rate (mice; total dose 25 mg/kg) was 0/5. The Mortality rate (mice; total dose 50 mg/kg) was 0/5, the IC50 (NFκB) was 1920 ng/mL and the IC50 [6] was 3120 ng/mL. It also gave an IC50 (SV40 promoter) of over 10000 ng/mL.

In the case of `COc1cc2c3c(c4ccc(O)cc4c2cc1OC)[C@H](OC(C)=O)[C@@H]1CCCN1C3.Cl` [Compound 5, acetic acid(12aS,13S)-3-hydroxy-6,7-dimethoxy-9,10,11,12,12a,13-hexahydro-9a-aza-cyclopenta[b]triphenylene-13-yl ester hydrochloride], the “A549 proliferation inhibitory action IC50” value [1] is reported as 0.5 ng/mL, the “HT-29 proliferation inhibitory action IC50” value [3] is reported as 2.3 ng/mL and the Mortality rate (mice; total dose 25 mg/kg) is reported as 0/5. The Mortality rate (mice; total dose 50 mg/kg) was 0/5, the “NFκB inhibitory activity IC50” value (NFκB) was 27.0 ng/mL and the “SW480 proliferation inhibitory action IC50” value [6] was 5.0 ng/mL. The “SV40 promoter inhibitory activity IC50” value (SV40 promoter) was over 100 ng/mL.

With `Cl.Oc1ccc2c3c(c4cc5c(cc4c2c1)OCO5)CN1CCC[C@H]1[C@H]3O` [Compound 8, (12aS,13S)-6,7-methylenedioxy-9,10,11,12,12a,13-hexahydro-9a-aza-cyclopenta[b]triphenylene-3,13-diol hydrochloride] the IC50 [1] was 19.3 ng/mL, the IC50 [3] was 46.9 ng/mL and the Mortality rate (mice; total dose 25 mg/kg) was 0/5. The Mortality rate (mice; total dose 50 mg/kg) was 0/5, the IC50 (NFκB) was 8.4 ng/mL and the IC50 [6] was 26.7 ng/mL. The IC50 (SV40 promoter) was over 10000 ng/mL.
